The NIST ThermoML archive (doi:10.1016/j.fluid.2006.12.012)

How the values were obtained:
[1] = 298.15 K; 101.33 kPa; Liquid; Pycnometric method
[2] = refractive index (Na D-line) (dimensionless); settings: 298.15 K; 101.33 kPa; Liquid; Standard Abbe refractometry
[3] = xn = mol fraction of the nth substance listed; settings: 303.15 K, 101 kPa, Liquid, Direct dilatometry
[4] = excess molar enthalpy (molar enthalpy of mixing); xn = mol fraction of the nth substance listed; settings: 298.15 K, 101 kPa, Liquid

CCC(C)O (stereo not given) [butan-2-ol]
Settings	mass density [kg/m3]	refractive index
[1]	798.92	–
[2]	–	1.3954

CC(C)O [propan-2-ol]
Settings	mass density [kg/m3]	refractive index
[1]	776.88	–
[2]	–	1.375

CC(C)CCO [3-methylbutan-1-ol]
Settings	mass density [kg/m3]	refractive index
[1]	801.76	–
[2]	–	1.4053

CC(C)CCO [3-methylbutan-1-ol] + CN1CCCC1=O
Settings	excess molar enthalpy [kJ/mol]	excess molar volume [m3/mol]
[3], x2 = 0.0999	–	-7.8e-08
[3], x2 = 0.2737	–	-1.69e-07
[3], x2 = 0.3718	–	-1.97e-07
[3], x2 = 0.4155	–	-2.09e-07
[3], x2 = 0.5254	–	-2.01e-07
[3], x2 = 0.6399	–	-1.76e-07
[3], x2 = 0.7034	–	-1.49e-07
[3], x2 = 0.8699	–	-7.3e-08
[3], x2 = 0.9384	–	-3.6e-08
[4], x2 = 0.0777	0.165	–
[4], x2 = 0.149	0.304	–
[4], x2 = 0.2286	0.421	–
[4], x2 = 0.3011	0.468	–
[4], x2 = 0.3692	0.502	–
[4], x2 = 0.4301	0.497	–
[4], x2 = 0.4847	0.485	–
[4], x2 = 0.5348	0.471	–
[4], x2 = 0.5484	0.479	–
[4], x2 = 0.5792	0.451	–
[4], x2 = 0.6031	0.432	–
[4], x2 = 0.6712	0.378	–
[4], x2 = 0.744	0.326	–
[4], x2 = 0.8153	0.257	–
[4], x2 = 0.8821	0.174	–
[4], x2 = 0.9444	0.0886	–

CN1CCCC1=O [N-methylpyrrolidone]
Settings	mass density [kg/m3]	refractive index
[1]	1023.4	–
[2]	–	1.4674

CC(C)(C)O [2-methylpropan-2-ol] + CN1CCCC1=O
Settings	excess molar enthalpy [kJ/mol]	excess molar volume [m3/mol]
[3], x2 = 0.1121	–	-3.2e-08
[3], x2 = 0.2423	–	-8.4e-08
[3], x2 = 0.3215	–	-1.16e-07
[3], x2 = 0.4128	–	-1.36e-07
[3], x2 = 0.4601	–	-1.52e-07
[3], x2 = 0.5403	–	-1.48e-07
[3], x2 = 0.6359	–	-1.42e-07
[3], x2 = 0.7246	–	-1.18e-07
[3], x2 = 0.8032	–	-9e-08
[3], x2 = 0.8404	–	-6.4e-08
[3], x2 = 0.9238	–	-2.6e-08
[4], x2 = 0.0634	0.0932	–
[4], x2 = 0.1313	0.25	–
[4], x2 = 0.2034	0.393	–
[4], x2 = 0.2666	0.489	–
[4], x2 = 0.3319	0.565	–
[4], x2 = 0.3942	0.607	–
[4], x2 = 0.4382	0.595	–
[4], x2 = 0.4828	0.587	–
[4], x2 = 0.5381	0.574	–
[4], x2 = 0.6026	0.534	–
[4], x2 = 0.6733	0.471	–
[4], x2 = 0.7442	0.406	–
[4], x2 = 0.829	0.277	–
[4], x2 = 0.9194	0.143	–

CC(C)CO [2-methyl-1-propanol]
Settings	mass density [kg/m3]	refractive index
[1]	794.34	–
[2]	–	1.3939

CC(C)CO [2-methyl-1-propanol] + CN1CCCC1=O
Settings	excess molar enthalpy [kJ/mol]	excess molar volume [m3/mol]
[3], x2 = 0.1356	–	-9.8e-08
[3], x2 = 0.2201	–	-1.47e-07
[3], x2 = 0.2921	–	-1.74e-07
[3], x2 = 0.4102	–	-2.06e-07
[3], x2 = 0.5144	–	-2.26e-07
[3], x2 = 0.5994	–	-2.32e-07
[3], x2 = 0.6915	–	-2.21e-07
[3], x2 = 0.8044	–	-1.86e-07
[3], x2 = 0.9237	–	-9.6e-08
[4], x2 = 0.051	0.153	–
[4], x2 = 0.1288	0.274	–
[4], x2 = 0.2035	0.356	–
[4], x2 = 0.2736	0.393	–
[4], x2 = 0.3385	0.4	–
[4], x2 = 0.3939	0.393	–
[4], x2 = 0.4477	0.377	–
[4], x2 = 0.4974	0.361	–
[4], x2 = 0.543	0.342	–
[4], x2 = 0.6198	0.27	–
[4], x2 = 0.6816	0.245	–
[4], x2 = 0.748	0.219	–
[4], x2 = 0.8179	0.199	–
[4], x2 = 0.8911	0.148	–
[4], x2 = 0.9686	0.0938	–

CC(C)(C)O [2-methylpropan-2-ol]
Settings	mass density [kg/m3]	refractive index
[1]	776.16	–
[2]	–	1.3851

CN1CCCC1=O [N-methylpyrrolidone] + CC(C)O
Settings	excess molar enthalpy [kJ/mol]	excess molar volume [m3/mol]
[3], x1 = 0.1498	–	-5.2e-08
[3], x1 = 0.2066	–	-7.8e-08
[3], x1 = 0.3202	–	-1.29e-07
[3], x1 = 0.4317	–	-1.57e-07
[3], x1 = 0.5027	–	-1.62e-07
[3], x1 = 0.5854	–	-1.66e-07
[3], x1 = 0.7216	–	-1.42e-07
[3], x1 = 0.8148	–	-1.06e-07
[3], x1 = 0.9062	–	-5.8e-08
[4], x1 = 0.0516	0.296	–
[4], x1 = 0.1082	0.573	–
[4], x1 = 0.1702	0.797	–
[4], x1 = 0.2279	0.932	–
[4], x1 = 0.2894	1	–
[4], x1 = 0.3471	1.04	–
[4], x1 = 0.4059	1.03	–
[4], x1 = 0.4562	0.994	–
[4], x1 = 0.595	0.73	–
[4], x1 = 0.6888	0.614	–
[4], x1 = 0.7874	0.474	–
[4], x1 = 0.892	0.271	–

CN1CCCC1=O [N-methylpyrrolidone] + CCC(C)O
Settings	excess molar enthalpy [kJ/mol]	excess molar volume [m3/mol]
[3], x1 = 0.1046	–	-6.5e-08
[3], x1 = 0.1831	–	-1.26e-07
[3], x1 = 0.249	–	-1.62e-07
[3], x1 = 0.3096	–	-1.93e-07
[3], x1 = 0.3777	–	-2.19e-07
[3], x1 = 0.4817	–	-2.38e-07
[3], x1 = 0.5739	–	-2.3e-07
[3], x1 = 0.6355	–	-2.16e-07
[3], x1 = 0.7494	–	-1.64e-07
[3], x1 = 0.8086	–	-1.36e-07
[3], x1 = 0.9142	–	-6.4e-08
[4], x1 = 0.0691	0.173	–
[4], x1 = 0.1595	0.392	–
[4], x1 = 0.2388	0.517	–
[4], x1 = 0.3106	0.561	–
[4], x1 = 0.3733	0.584	–
[4], x1 = 0.4822	0.571	–
[4], x1 = 0.5305	0.55	–
[4], x1 = 0.5614	0.517	–
[4], x1 = 0.6341	0.457	–
[4], x1 = 0.7217	0.365	–
[4], x1 = 0.8176	0.25	–
[4], x1 = 0.9067	0.137	–
